Assay results taken from patent publication US20180305334A1, “COMPOUNDS, COMPOSITIONS AND METHODS OF USE AGAINST STRESS GRANULES” (Aquinnah Pharmaceuticals, Inc., priority 2015, published 2018).

These compounds were tested on TDP-43 aggregation in PC12 cells stably expressing TDP-43^Q331K::eGFP (assay: In vitro efficacy assay, TDP-43 aggregation concentration-response). Conditions: Rattus norvegicus, PC-12, inhibition of TDP-43 aggregation; PC12 TDP-43^Q331K::eGFP, 1 hour pre-treatment, 15 μM sodium arsenite for 23 hours; 10-point dose response.
Format: cell-based
Procedure: Exemplary compounds of the invention were evaluated for efficacy in inhibiting TDP-43 inclusions using a concentration-response assay. Briefly, PC12 cells stably expressing a GFP-tagged mutant form of TDP-43 (TDP-43^Q331K::eGFP) were pre-treated for 1 hour with exemplary compounds and stressed with 15 μM sodium arsenite for 23 hours to induce TDP-43 aggregation. The inhibitory effect on TDP-43 aggregation was measured using fluorescence microscopy. The ratio of cells with TDP-43 aggregates was calculated based on the total number of cells with detectable GFP expression.

SMILES	IC50 [µM]
CCN(CC1CCN(C2CCc3ccccc32)CC1)C(=O)c1cc2ccccc2[nH]1 (stereo not shown) [Compound 328]	4 to 7
CCN(CC1CCCNC1)C(=O)c1cc2cc(OC)c(OC)cc2[nH]1 (stereo not shown) [compound 415]	> 10
CCN(CC1CCCN(Cc2cccc(C#N)c2)C1)C(=O)c1cc2ccccc2[nH]1 (stereo not shown) [Compound 133]	1.5 to 4
CC(C)N(CC1CCN(Cc2cccc(F)c2)CC1)C(=O)c1cc2ccccc2[nH]1 [compound 277]	> 10
CCN(CC1CCCN(Cc2ccc(Cl)cc2)C1)C(=O)c1cc2ccc(C)cc2[nH]1 (stereo not shown) [Compound 155]	1.5 to 4
CCN(CC1CCN(C(C)(C)Cc2ccc(OC)cc2)CC1)C(=O)c1cc2ccccc2[nH]1 [Compound 344]	> 10
COc1ccc(S(=O)(=O)N2CCC(CNC(=O)c3cc4ccccc4[nH]3)CC2)cc1 [Compound 325]	> 10
CCN(CC1CCCN(CCc2ccccc2C#N)C1)C(=O)c1cc2ccccc2[nH]1 (stereo not shown) [Compound 147]	> 10
CCN(CC1CCCN(C2CCc3ccccc3C2)C1)C(=O)c1cc2ccccc2[nH]1 (stereo not shown) [Compound 208]	4 to 7
CCN(CC1CCCNC1)C(=O)c1cc2ccccc2[nH]1 (stereo not shown) [Compound 413]	> 10
CCN(CC1CCCN(C2CCc3ccccc32)C1)C(=O)c1cc2ccccc2[nH]1 (stereo not shown) [Compound 207]	< 1.5
CCN(CC1CCN(Cc2ccc(OC)cc2)CC1)C(=O)c1cc2cc(OC)ccc2[nH]1 [compound 404]	< 1.5
CCN(CC1CCCN(Cc2ccccc2Cl)C1)C(=O)c1cc2ccccc2[nH]1 (stereo not shown) [Compound 129]	> 10
CN(CC1CCN(Cc2cccc(F)c2)CC1)C(=O)c1cc2ccccc2[nH]1 [compound 255]	> 10
CCN(CC1CCN(C(C)(C)Cc2cccc(OC)c2)CC1)C(=O)c1cc2ccccc2[nH]1 [Compound 332]	< 1.5
CCN(CC1CCCN(C2CCc3ccc(OC)cc3C2)C1)C(=O)c1cc2ccccc2[nH]1 (stereo not shown) [Compound 210]	> 10
CCN(CC1CCCN(Cc2cccc(Cl)c2)C1)C(=O)c1cc2ccccc2[nH]1 (stereo not shown) [Compound 134]	1.5 to 4
CCN(CC1CCCN(Cc2ccc(Cl)cc2)C1)C(=O)c1cc2cc(OCc3ccccc3)ccc2[nH]1 (stereo not shown) [Compound 173]	1.5 to 4
CCN(CC1CCCN(C(=O)Cc2ccc(OC)cc2)C1)C(=O)c1cc2ccccc2[nH]1 (stereo not shown) [Compound 201]	< 1.5
CCN(CC1CCCN(C(C)(C)c2ccc(OC)cc2)C1)C(=O)c1cc2ccccc2[nH]1 (stereo not shown) [Compound 355]	< 1.5
CC(C)N(CC1CCN(Cc2ccccc2F)CC1)C(=O)c1cc2ccccc2[nH]1 [compound 280]	> 10
CCN(CC1CCCN(Cc2ccc(F)cc2)C1)C(=O)c1cc2ccccc2[nH]1 (stereo not shown) [Compound 135]	< 1.5
CCN(CC1CCN(C(C)(C)Cc2ccccc2)CC1)C(=O)c1cc2ccccc2[nH]1 [Compound 333]	> 10

SMILES	IC50 [µM]
CCN(CC1CCCN(C(C)(C)Cc2cccc(OC(F)F)c2)C1)C(=O)c1cc2cc(OC(F)F)ccc2[nH]1 (stereo not shown) [compound 315]	< 1.5
CCN(CC1CCN(C(C)(C)Cc2ccc(F)cc2)CC1)C(=O)c1cc2ccccc2[nH]1 [Compound 345]	1.5 to 4
CCN(CC1CCNCC1)C(=O)c1cc2cc(OC(F)F)ccc2[nH]1 [compound 402]	> 10
CCN(CC1CCN(C(C)(C)c2ccccc2)CC1)C(=O)c1cc2cc(OC)ccc2[nH]1 [Compound 359]	< 1.5
CC(C)(Cc1ccccc1)N1CCCC(CN(CC(F)(F)F)C(=O)c2cc3ccccc3[nH]2)C1 (stereo not shown) [Compound 351]	< 1.5
CCN(CC1CCCN(Cc2ccc(OC(F)(F)F)cc2)C1)C(=O)c1cc2cc(OC(F)(F)F)ccc2[nH]1 (stereo not shown) [Compound 176]	> 10
CCN(CC1CCN(C(C)(C)Cc2cccc(OC)c2)CC1)C(=O)c1cc2ncccc2[nH]1 [Compound 363]	< 1.5
CCN(CC1CCCN(Cc2cc3ccccc3o2)C1)C(=O)c1cc2ccccc2[nH]1 (stereo not shown) [Compound 206]	< 1.5
CCN(CC1CCN(C(C)(C)c2cc3ccccc3o2)CC1)C(=O)c1cc2ccccc2[nH]1 [Compound 340]	< 1.5
CC(C)(Cc1ccccc1)N1CCC(CN(CC(F)(F)F)C(=O)c2cc3ccccc3[nH]2)CC1 [Compound 354]	< 1.5
CCN(CC1CCN(Cc2ccccc2)CC1)C(=O)c1cc2ccccc2[nH]1 [compound 291]	1.5 to 4
O=C(NCC1CCN(Cc2ccc(Cl)cc2)CC1)c1cc2ccccc2[nH]1 [compound 275]	> 10
CCN(CC1CCN(Cc2cc3ccccc3o2)CC1)C(=O)c1cc2ccccc2[nH]1 [Compound 327]	7 to 9.9
CCN(CC1CCN(C(C)(C)Cc2cccc(F)c2F)CC1)C(=O)c1cc2ccccc2[nH]1 [Compound 342]	> 10
CCN(CC1CCCN(Cc2ccc(Cl)cc2)C1)C(=O)c1cc2cc(OC)c(OC)cc2[nH]1 (stereo not shown) [Compound 152]	> 10
CN(CC1CCN(Cc2ccccc2F)CC1)C(=O)c1cc2ccccc2[nH]1 [compound 258]	> 10
CCN(CC1CCN(Cc2ccc(Cl)cc2)CC1)C(=O)c1cc2ccccc2[nH]1 [compound 289]	> 10
CCN(CC1CCCN(Cc2cccc(OC(F)F)c2)C1)C(=O)c1cc2cc(OC(F)F)ccc2[nH]1 (stereo not shown) [Compound 177]	< 1.5
COc1ccccc1CN1CCC(CN(C(=O)c2cc3ccccc3[nH]2)C(C)C)CC1 [compound 282]	> 10
CCN(CC1CCN(C(C)(C)c2ccc(OC)cc2)CC1)C(=O)c1cc2ccccc2[nH]1 [Compound 358]	< 1.5
CN(CC1CCN(Cc2ccccc2Cl)CC1)C(=O)c1cc2ccccc2[nH]1 [compound 259]	> 10
CC(C)N(CC1CCN(Cc2ccc(Cl)cc2)CC1)C(=O)c1cc2ccccc2[nH]1 [compound 283]	> 10
COc1cccc(CN2CCC(CN(C(=O)c3cc4ccccc4[nH]3)C(C)C)CC2)c1 [compound 279]	> 10

Further lines, results first:

IC50 [µM]	SMILES
< 1.5	CCN(CC1CCCN(Cc2ccc(OC)cc2)C1)C(=O)c1cc2cc(F)ccc2[nH]1 (stereo not shown) [Compound 151]
1.5 to 4	CCN(CC1CCCN(Cc2ccc(OC)cc2)C1)C(=O)c1cc2ccccc2[nH]1 (stereo not shown) [Compound 137]
< 1.5	CCN(CC1CCCN(CCc2ccc(Cl)cc2)C1)C(=O)c1cc2ccccc2[nH]1 (stereo not shown) [Compound 128]
1.5 to 4	CCN(CC1CCCN(Cc2ccc(OC)cc2)C1)C(=O)c1cc2ccc(C)cc2[nH]1 (stereo not shown) [Compound 156]
> 10	CCN(CC1CCCN(CCc2ccc(C#N)cc2)C1)C(=O)c1cc2ccccc2[nH]1 (stereo not shown) [Compound 142]
< 1.5	CCN(CC1CCCN(CCc2cccc(OC)c2)C1)C(=O)c1coc2ccccc12 (stereo not shown) [Compound 233]
> 10	CCN(CC1CCCN(CCc2cccc(OC)c2)C1)C(=O)c1ccccn1 (stereo not shown) [Compound 236]
> 10	CCN(CC1CCCN(CCc2cccc(OC)c2)C1)C(=O)c1cc2cc(OC)ccc2[nH]1 (stereo not shown) [Compound 244]
> 10	CCN(CC1CCCN(Cc2ccc(OC)cc2)C1)C(=O)c1cc2c(F)cccc2[nH]1 (stereo not shown) [Compound 166]
> 10	CCN(CC1CCCN(CCc2cccc(OC)c2)C1)C(=O)c1ccccc1 (stereo not shown) [Compound 234]
< 1.5	CCN(CC1CCCN(Cc2ccc(Cl)cc2)C1)C(=O)c1cc2cc(OC)ccc2[nH]1 (stereo not shown) [Compound 148]
< 1.5	CCN(CC1CCCN(CCc2cccc(F)c2)C1)C(=O)c1cc2ccccc2[nH]1 (stereo not shown) [Compound 140]
< 1.5	CCN(CC1CCCN(CCc2cccc(OC)c2)C1)C(=O)c1cc2c([nH]1)CCCC2 (stereo not shown) [Compound 243]
4 to 7	CCN(CC1CCCN(Cc2ccc(OC)cc2)C1)C(=O)c1cc2cccc(F)c2[nH]1 (stereo not shown) [Compound 158]
4 to 7	CCN(CC1CCCN(CCc2ccccc2OC)C1)C(=O)c1cc2ccccc2[nH]1 (stereo not shown) [Compound 124]
1.5 to 4	CCN(CC1CCCN(Cc2ccc(OC)cc2)C1)C(=O)c1cc2ccc(OC)cc2[nH]1 (stereo not shown) [Compound 162]
> 10	CCN(CC1CCCN(CCc2cccc(OC(F)F)c2)C1)C(=O)c1cc2cc(OC(F)F)ccc2[nH]1 (stereo not shown) [Compound 180]
< 1.5	COc1cccc(CCN2CCCC(CNC(=O)c3cc4ccccc4[nH]3)C2)c1 (stereo not shown) [Compound 125]
1.5 to 4	CCN(CC1CCCN(CCc2cccc(OC)c2)C1)C(=O)c1ccc2ccccc2c1 (stereo not shown) [Compound 237]
4 to 7	CCN(CC1CCCN(CCc2cccc(OC)c2)C1)C(=O)c1ccco1 (stereo not shown) [Compound 247]
< 1.5	CCN(CC1CCCN(Cc2ccc(OC)cc2)C1)C(=O)c1cc2ccc(Cl)cc2[nH]1 (stereo not shown) [Compound 168]
< 1.5	CCN(CC1CCCN(CCc2cccc(OC)c2)C1)C(=O)c1n[nH]c2ccccc12 (stereo not shown) [Compound 249]
1.5 to 4	CCN(CC1CCCN(CCc2ccc3c(c2)OCO3)C1)C(=O)c1cc2ccccc2[nH]1 (stereo not shown) [Compound 146]
> 10	COc1cccc(CCN2CCCC(CN(CC3CCCCC3)C(=O)c3cc4ccccc4[nH]3)C2)c1 (stereo not shown) [Compound 220]

Same assay, conditions: inhibition of TDP-43 aggregation; PC12 TDP-43^Q331K::eGFP, 1 hour pre-treatment, 15 μM sodium arsenite for 23 hours; 10-point dose response

IC50 [µM]	SMILES
1.5 to 4	CCN(CC1CCCN(C(C)(C)Cc2cccc(OC)c2)C1)C(=O)c1cc2ccccc2[nH]1 (stereo not shown) [Compound 331]
< 1.5	CCN(CC1CCCN(Cc2ccc(Cl)cc2)C1)C(=O)c1cc2ccc(Cl)cc2[nH]1 (stereo not shown) [Compound 167]
< 1.5	CCN(CC1CCCN(C(C)(C)Cc2cccc(Cl)c2)C1)C(=O)c1cc2ccccc2[nH]1 (stereo not shown) [Compound 335]
> 10	CCN(CC1CCCN(C(C)(C)Cc2cccc(OC)c2)C1)C(=O)c1cc2cc(OC)ccc2[nH]1 (stereo not shown) [compound 313]
< 1.5	CCN(CC1CCCN(C(C)(C)Cc2cccc(OC(F)F)c2)C1)C(=O)c1cc2cc(OC(F)F)ccc2[nH]1 (stereo not shown) [Compound 336]

SMILES	IC50 [µM]
CCN(CC1CCN(CC(C)(C)c2cc3ccccc3o2)CC1)C(=O)c1cc2ccccc2[nH]1 [compound 318]	< 1.5
